Experimental data: patent US7932262B2 (Novartis AG, priority 2006, dated 2011)
pEC50, pIC50: −log10 of the molar value. Where two headings read alike, the source gives them in different places.

Key:
A2780 cells = assay: Cell Proliferation Assay (Cell Titer Glo), A2780; type: cell-based; settings: Homo sapiens, read-out: CPEC50 A2780
Summary of the method: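 Cells seeded at 1000/well, allowed to adhere 3-5 h, then exposed to DMSO-dissolved compounds for 3 days at 37° C., 5% CO2. Medium replaced before Cell Titer Glo addition; luminescence read after 10 min.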

PDK1 kinase = target: T1, PDK1 kinase (Homo sapiens, UniProt O15530); assay: PDK1 Kinase Alpha Screen Assay; type: biochemical; settings: read-out: PDK1 IC50
T1 sequence (O15530 1-556): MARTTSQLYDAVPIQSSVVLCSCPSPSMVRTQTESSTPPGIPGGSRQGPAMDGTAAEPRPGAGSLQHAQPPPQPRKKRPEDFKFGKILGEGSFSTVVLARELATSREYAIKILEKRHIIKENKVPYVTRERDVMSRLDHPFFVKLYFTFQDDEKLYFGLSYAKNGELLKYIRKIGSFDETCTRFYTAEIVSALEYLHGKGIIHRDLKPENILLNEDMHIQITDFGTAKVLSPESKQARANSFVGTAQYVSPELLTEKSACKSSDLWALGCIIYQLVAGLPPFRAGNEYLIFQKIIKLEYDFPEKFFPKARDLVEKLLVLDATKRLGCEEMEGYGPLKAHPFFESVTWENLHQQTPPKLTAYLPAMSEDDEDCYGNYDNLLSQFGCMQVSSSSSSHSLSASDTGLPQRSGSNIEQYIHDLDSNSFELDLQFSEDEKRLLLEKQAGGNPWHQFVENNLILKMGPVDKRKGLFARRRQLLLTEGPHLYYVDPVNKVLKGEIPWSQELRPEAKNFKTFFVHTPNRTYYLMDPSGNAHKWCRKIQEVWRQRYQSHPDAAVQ
Summary of the method: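 Compound in DMSO added to PDK1-4 peptide; PDK1/ATP mix starts reaction (final 50 nM peptide, 10 uM ATP). Runs 3-18 hours, stopped with 90 mM EDTA buffer. Antibody/bead mix added, developed overnight at room temperature, then AlphaScreen signal read.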

[1] = Cell Proliferation Assay, A2780
[2] = 72 h, A2780 cells, 3 days incubation
[3] = cell proliferation, A2780 cells

Compound	pIC50 (PDK1 kinase; PDK1 Kinase Alpha Screen Assay)	pEC50 (A2780 cells; [2])	pIC50 (PDK1 kinase)	also measured
NC(=O)c1ccc2cnc(Nc3ccc(S(N)(=O)=O)cc3)nc2c1 [Compound 564, 2-(4-sulfamoylphenylamino)quinazoline-7-carboxamide]	> 5.30			pEC50 (A2780 cells; [1]): > 5.30
NC(=O)c1ccc(-c2ccc3cnc(Nc4ccc(S(N)(=O)=O)cc4)nc3c2)cc1F [Compound 112, 2-Fluoro-4-[2-(4-sulfamoyl-phenylamino)-quinazolin-7-yl]-benzamide]		5.00 to 5.30	> 5.30	
NS(=O)(=O)c1ccc(Nc2ncc3cccc(CNCc4ccccc4)c3n2)cc1 [Compound 901, 4-(8-((benzylamino)methyl)quinazolin-2-ylamino)benzenesulfonamide]	> 5.30			pEC50 (A2780 cells; [3]): > 5.30
CC(C)Oc1cccc2cnc(Nc3ccc(S(=O)(=O)N4CCN(C)CC4)cc3)nc12 [Compound 499, 8-isopropoxy-N-(4-(4-methylpiperazin-1-ylsulfonyl)phenyl)quinazolin-2-amine]	> 5.30			pEC50 (A2780 cells; [1]): 5.00 to 5.30
COCCNc1cc(-c2cccc3cnc(Nc4ccc(S(N)(=O)=O)cc4)nc23)ccn1 [Compound 100, 4-{8-[2-(2-Methoxy-ethylamino)-pyridin-4-yl]-quinazolin-2-ylamino}-benzenesulfonamide]		> 5.30	> 5.30	
NS(=O)(=O)c1ccc(Nc2ncc3cccc(CN4CCNC(=O)C4)c3n2)cc1 [Compound 896, 4-(8-((3-oxopiperazin-1-yl)methyl)quinazolin-2-ylamino)benzenesulfonamide]	> 5.30			pEC50 (A2780 cells; [3]): > 5.30
CC(C)NS(=O)(=O)c1cccc(Nc2ncc3cccc(OC4CCNCC4)c3n2)c1 [Compound 8, N-Isopropyl-3-[8-(piperidin-4-yloxy)-quinazolin-2-yl-amino]-benzenesulfonamide]		> 5.30	> 5.30	
CN1CCCC(Oc2cccc3cnc(Nc4ccc(S(N)(=O)=O)cc4)nc23)C1 (centres unmarked) [Compound 39, 4-[8-(1-Methyl-piperidin-3-yloxy)-quinazolin-2-ylamino]-benzenesulfonamide]		> 5.30	> 5.30	
NS(=O)(=O)c1ccc(Nc2ncc3cccc(OC4CN5CCC4CC5)c3n2)cc1 (centres unmarked) [Compound 33, 4-[8-(1-Aza-bicyclo[2.2.2]oct-3-yloxy)-quinazolin-2-ylamino]-benzenesulfonamide]		> 5.30	> 5.30	
NS(=O)(=O)c1ccc(Nc2ncc3ccc(-c4ccnc(NCCN5CCCC5)c4)cc3n2)cc1 [Compound 850, 4-(7-(2-(2-(pyrrolidin-1-yl)ethylamino)pyridin-4-yl)quinazolin-2-ylamino)benzenesulfonamide]	> 5.30			pEC50 (A2780 cells; [3]): 5.00 to 5.30
CC(C)(C(N)=O)C(=O)NCCOc1cccc2cnc(Nc3ccccc3)nc12 [Compound 508, 2,2-dimethyl-N1-(2-(2-(phenylamino)quinazolin-8-yloxy)ethyl)malonamide]	5.00 to 5.30			pEC50 (A2780 cells; [1]): 5.00 to 5.30
CN(C)[C@@H]1CCN(C(=O)c2cccc3cnc(Nc4ccc(S(N)(=O)=O)cc4)nc23)C1 [Compound 141, 4-[8-((R)-3-Dimethylamino-pyrrolidine-1-carbonyl)-quinazolin-2-ylamino]-benzenesulfonamide]		5.00 to 5.30	> 5.30	
NS(=O)(=O)c1ccc(Nc2ncc3cc(F)cc(-c4ccc(N5CCNC(=O)C5)nc4)c3n2)cc1 [Compound 889, 4-(6-fluoro-8-(6-(3-oxopiperazin-1-yl)pyridin-3-yl)quinazolin-2-ylamino)benzenesulfonamide]	> 5.30			pEC50 (A2780 cells; [3]): > 5.30
NS(=O)(=O)c1ccc(Nc2ncc3cccc(-c4cccnc4)c3n2)cc1 [Compound 98, 4-(8-Pyridin-3-yl-quinazolin-2-ylamino)-benzenesulfonamide]		5.00 to 5.30	> 5.30	
CC(C)NC(=O)c1ccc(Nc2ncc3cccc(OC(C)C)c3n2)cc1 [Compound 516, 4-(8-isopropoxyquinazolin-2-ylamino)-N-isopropylbenzamide]	> 5.30			pEC50 (A2780 cells; [1]): > 5.30
CC(C)Cn1cc(-c2ccc3cnc(Nc4ccc(S(N)(=O)=O)cc4)nc3c2)cn1 [Compound 849, 4-(7-(1-isobutyl-1H-pyrazol-4-yl)quinazolin-2-ylamino)benzenesulfonamide]	> 5.30			pEC50 (A2780 cells; [3]): > 5.30
NS(=O)(=O)c1ccc(Nc2ncc3ccc(OCC4CCNCC4)cc3n2)cc1 [Compound 631, 4-(7-(piperidin-4-ylmethoxy)quinazolin-2-ylamino)benzenesulfonamide]	> 5.30			pEC50 (A2780 cells; [1]): > 5.30
COCCNS(=O)(=O)c1cccc(Nc2ncc3cccc(OC4CCNCC4)c3n2)c1 [Compound 9, N-(2-Methoxy-ethyl)-3-[8-(piperidin-4-yloxy)-quinazolin-2-ylamino]-benzenesulfonamide]		> 5.30	> 5.30	
NS(=O)(=O)c1ccc(Nc2ncc3ccc(-c4ccc(F)nc4)c(-c4ccc(F)nc4)c3n2)cc1 [Compound 912, 4-(7,8-bis(6-fluoropyridin-3-yl)quinazolin-2-ylamino)benzenesulfonamide]	> 5.30			pEC50 (A2780 cells; [3]): > 5.30
CN1CCN(S(=O)(=O)c2ccc(Nc3ncc4cccc(OC5CCNCC5)c4n3)cc2)CC1 [Compound 10, [4-(4-Methyl-piper-azine-1-sulfonyl)-phenyl]-[8-(piper-idin-4-yloxy)-quinazolin-2-yl]-amine]		> 5.30	> 5.30	
NS(=O)(=O)c1ccc(Nc2ncc3cccc(CNC4CCOCC4)c3n2)cc1 [Compound 920]			> 5.30	pEC50 (A2780 cells; A2780 cells): > 5.30
NS(=O)(=O)c1ccc(Nc2ncc3ccc(-c4ccnc(N5CCOCC5)c4)cc3n2)cc1 [Compound 852, 4-(7-(2-morpholinopyridin-4-yl)quinazolin-2-ylamino)benzenesulfonamide]	> 5.30			pEC50 (A2780 cells; [3]): > 5.30
NS(=O)(=O)c1ccc(Nc2ncc3cccc(OCCN4CCOCC4)c3n2)cc1 [Compound 510, 4-(8-(2-mropholinoethoxy)quinazolin-2-ylamino)benzenesulfonamide]	> 5.30			pEC50 (A2780 cells; [1]): > 5.30
NS(=O)(=O)c1ccc(Nc2ncc3cccc(-c4ccnc(N5CCNC(=O)C5)c4)c3n2)cc1 [Compound 108, 4-{8-[2-(3-Oxo-piperazin-1-yl)-pyridin-4-yl]-quinazolin-2-ylamino}-benzenesulfonamide]		> 5.30	> 5.30	
NS(=O)(=O)c1ccc(Nc2ncc3cccc(CNCc4cccnc4)c3n2)cc1 [Compound 917, 4-(8-((pyridin-3-ylmethylamino)methyl)quinazolin-2-ylamino)benzenesulfonamide]			> 5.30	pEC50 (A2780 cells; A2780 cells): > 5.30
CC(C)Oc1cccc2cnc(Nc3cccc(S(C)(=O)=O)c3)nc12 [Compound 555, 8-isopropoxy-N-(3-(methylsulfonyl)phenyl)quinazolin-2-amine]	> 5.30			pEC50 (A2780 cells; [1]): > 5.30
Nc1ncc(-c2ccc3cnc(Nc4ccc(S(N)(=O)=O)cc4)nc3c2OC2CCNCC2)cn1 [Compound 22, 4-[7-(2-Amino-pyrimidin-5-yl)-8-(piperidin-4-yloxy)-quinazolin-2-ylamino]-benzenesulfonamide]		5.00 to 5.30	> 5.30	
NC(=O)c1cccc(-c2cccc3cnc(Nc4ccc(S(N)(=O)=O)cc4)nc23)c1 [Compound 90, 3-[2-(4-Sulfamoyl-phenylamino)-quinazolin-8-yl]-benzamide]		> 5.30	> 5.30	
